Like-named read-outs stand apart in the source and are kept apart here.
Key:
[1] = molecular target: T1, HIV-1 reverse transcriptase (RT) (Human immunodeficiency virus type 1 group M subtype B, UniProt P04585); test: Inhibition of recombinant HIV-1 reverse transcriptase (TTP incorporation); assay type: biochemical; conditions: identical assay conditions
T1 construct: Recombinant HIV-1 reverse transcriptase (RT) was obtained from Worthington (Freehold, N.J.); purchased Worthington (Freehold, N.J.)
Experimental: Reverse transcriptase assays were performed as described by Flexner, et al. (25) using recombinant HIV-1 RT as the source of enzyme. Dilutions and assay were carried out in 96-well "half-area" plates. The enzyme with various concentrations of test compounds were dissolved in DPBS containing 1% w/v BSA and diluted in 50 μl volumes; 10 μl aliquots in triplicate were transferred to another plate for the enzyme assay. The reactions were initiated by the addition of 25 μl/well of buffer containing 50 mM Tris.cndot.Cl (pH 8.0), 75 mM KCl, 1 mM dithiothreitol, 2 mM MgCl2, 5 μg/ml poly(A), 2.5 μg/ml oligo (dT), 10 μCi/ml ^32 p TTP with or without unlabeled TTP. […] TTP incorporation was measured by spotting 20 μl of the reaction cocktail onto DE81 paper, washing the paper with 4×5 min washes of 300 mM NaCl and 30 mM sodium citrate (pH 7.0), drying the paper, and counting the paper by liquid scintillation counting. The assays performed with oltipraz and 1,2-dithiole-3-thione contained 0.29% final concentration DMSO. This concentration of DMSO had no effect on RT activity.

HIV-1 (HTLVIIIB) = test: microbe, parasite or virus in culture; assay type: cell-based; conditions: H9 cells; for IC50: Human immunodeficiency virus 1
Experimental: (§2) The effects for test compounds were assessed by means of both IFA and p24 release. In general, the following protocol was followed: H9 cells were infected with HIV-1 at 1000 50% infective doses of viruses/10^6 cells. Virus was allowed to adsorb for 1 h, after which unadsorbed virus was removed by centrifugation. The cells were resuspended and washed twice with PBS (without Ca^+2 or Mg^+2 salts) and centrifuged to collect the cell pellet (150×g×10 min). Cells were suspended in fresh medium and added at a final cell density of 500,000 cells/ml in a 96-well plate with media containing 0.1% DMSO and various concentrations of test compounds. The cells were re-fed freshly prepared media containing 0.1% DMSO±test compounds on day four (for preinduction experiments, cells were exposed to inducers on days -2, 0, and +4 days relative to infection). After seven days, cells were examined for cytoxicity by trypan blue exclusion, the degree of infection with HIV-1 by IFA, and the supernatants were assayed for p24 levels according to the manufacturer's directions. The IFA procedure can be summarized as follows: The cells were washed twice in PBS and were placed in 5 mm 12-well slides. After allowing the slides to dry and fixing the cells with acetone for 5 min, 10 μl of HIV-1 positive serum in 40 μl PBS was added to each well and allowed to incubate at 37° C. for 30 min. After incubation, the slides were washed twice with PBS and incubated at 37° C. for 30 min with 2.5 μl goat anti-human IgG-fluorescein isothiocyanate conjugate in 50 μl PBS containing 0.01% Evans Blue per well. The slides were then washed twice with PBS, dried, and mounted with 50% glycerol in PBS, and scored for the percentage of fluorescent cells by fluorescent microscopy.

[2] = tested on: quinone reductase (QR) in H9 cells; test: Elevation of quinone reductase (QR) in H9 cells; assay type: cell-based, human; conditions: dose- and time-dependent, H9 cells
Experimental: (§1) Five ml of medium was added to T-25 flasks and DMSO containing tests compounds were added to a final concentration of 0.1%. Control medium contained 0.1% DMSO. After the drugs were added, 5×10^6 cells in 5 ml of medium was added to each T-25 flask. The cells were grown at 37° C. in a humidified incubator supplemented with 5% CO2 until harvested (N=3 flasks/group). At the indicated times, cells were isolated by centrifugation (500×g×10 min) and were washed three times by adding 10 ml of ice-cold DPBS, mixing, and centrifuging in a refrigerated centrifuge (500×g×10 min) to isolate the cell pellets. The cells were then lysed by the addition of 400 μl of ice-cold DPBS containing 0.5% Triton X-100 and vortexing. Supernatants were then isolated by centrifuging the lysates (5000×g×20 min). Samples were kept on ice or refrigerated until the reagents for QR or GSH spectrophotometric assays were added to the aliquoted microtiter plates. QR levels were determined by aliquoting 10 μl/well of supernatant in a 96-well plate and measuring the activity by the assay described by Prochaska and Santamaria (20) except that the final NADP^+ concentration was 200 μM (21). Samples were assayed in quadruplicate, and dicoumarol inhibitable-rates (which generally represented less than 5% of the total rate) were also measured. Spectrophotometric blanks contained 10 μl of DPBS with 0.5% Triton X-100. For the GSH assay, 300 μl of sample was placed in a centricon-10microconcentrator and centrifuged (5000×g×45 min) until enough ultrafiltrate could be collected. 50 μl/well of sample in quadruplicate was placed in a 96 well "half-area" plate after which 20 μl of 1 mM Ellman's reagent dissolved in DPBS was added. The yellow color (22) developed within 5 min and was scanned with a uvmax microtiter scanner (Palo Alto, Calif.) at 405 nm. Spectrophotometric blanks contained 50 μl DPBS with 0.5% Triton X-100 and 20 μl of 1 mM Ellman's reagent in DPBS. The optical densities of the specimens were calibrated to a GSH standard curve. Protein contents were determined in 3 ml cuvettes by the Bradford method (23). The protein content in the ultrafiltrates employed for GSH determinations were negligible (<0.01 mg/ml).
We confirmed that the induction of QR in microtiter wells mirrored our results in T-25 flasks by using the method of Prochaska and Santamaria (20). Medium (100 μl) containing 0.1% final concentration DMSO was added to all wells except columns designated to contain the highest concentration of drug or spectrophotometric blanks in duplicate sets of U-bottomed microtiter plates. 200 μl of media containing drug (final DMSO concentration=0.1%) was added to the empty column of wells and then diluted in 2-fold serial dilutions across. After the serial dilutions were performed, 100 μl of media containing 1×10^6 cells/ml was added to each well, and the plates were placed in a 37° C. incubator for 48 h. One set of plates was assayed as described (21) for QR activity, the other was assayed for cell number by the method for Alley et al. (24).

H9 cells = test: Cytotoxicity in H9 cells by trypan blue exclusion; assay type: cell-based, human
Experimental: as §2

[3] = tested on: glutathione levels (GSH) in H9 cells; test: Elevation of glutathione (GSH) levels in H9 cells; assay type: cell-based, human; conditions: dose- and time-dependent, H9 cells
Experimental: as §1

[4] = Exp 1, IFA, read-out: IC50 HIV-1 replication (Exp 1)
[5] = Exp 2, IFA, read-out: IC50 HIV-1 replication (Exp 2)

SMILES	IC50 (HIV-1 (HTLVIIIB); [4])	IC50 (HIV-1 (HTLVIIIB); [5])	other results
Cc1cn([C@H]2C[C@H](N=[N+]=[N-])[C@@H](COP(=O)(O)OP(=O)(O)OP(=O)(O)O)O2)c(=O)[nH]c1=O [AZT triphosphate, 3'-azido-3'-deoxythymidine-5'-triphosphate]	–	–	potency relative to oltipraz (reverse transcriptase) [1]: approximately 1000 fold
CC(C)c1ccc(Nc2ssc(=S)c2Cl)cc1 [compound 18]	0.4 µM	> 60 µM	–
Cc1c(-c2cccnn2)ssc1=S [compound 8]	2 µM	4 µM	–
Cc1c(-c2ccncc2)ssc1=S [compound 7]	60 µM	60 µM	–
CCCCc1c(-c2cnccn2)ssc1=S [compound 15]	2 µM	2 µM	–
S=c1ssc(-c2cccnn2)c1CCc1ccccc1 [compound 22]	0.4 µM	> 60 µM	–
CCOC(=O)Cc1c(-c2cncnc2)ssc1=S [compound 20]	> 60 µM	> 60 µM	–
Cc1ncc(-c2cc(=S)ss2)nc1C [compound 4]	–	–	IC50 HIV-1 replication (Exp 1) (HIV-1 (HTLVIIIB); Exp 1, IFA): Inactive; IC50 HIV-1 replication (Exp 2) (HIV-1 (HTLVIIIB); Exp 2, IFA): Inactive
CCOC(=O)c1c(-c2ccncc2)ssc1=S [compound 17]	15 µM	> 60 µM	–
CC(C)(C)c1cc(O)ccc1O [tert-butylhydroquinone]	–	–	inhibition of HIV-1 replication (HIV-1 (HTLVIIIB); up to 30 μM): inactive; elevation of QR [2]: able to elevate both GSH and QR levels; cytotoxicity at optimal inductive doses (H9 cells): non-cytotoxic; elevation of GSH [3]: able to elevate both GSH and QR levels
Cc1c(-c2cnccn2)ssc1=O [compound 12]	10 µM	–	IC50 HIV-1 replication (Exp 2) (HIV-1 (HTLVIIIB); Exp 2, IFA): Inactive
CN(C)CCCON=c1cc(-c2ccncc2)ss1 [compound 23]	0.4 µM	> 60 µM	–
CCOC(=O)c1c(-c2ccccn2)ssc1=S [compound 16]	1 µM	4 µM	–
Cc1c(-c2cccnc2)ssc1=S [compound 6]	10 µM	–	IC50 HIV-1 replication (Exp 2) (HIV-1 (HTLVIIIB); Exp 2, IFA): Inactive

From patent US5691338A, “1,2-dithiole-3 thiones for the treatment of reverse transcriptase-dependent viral infections” (priority 1995, dated 1997)
